Reference: patent US20170281573A1, “MEDICINAL COMPOSITION FOR ENHANCED DELIVERY OF TRITERPENES” (PHARCON INC., priority 2016, published 2017)
Structures can show the parent of a compound that is named as a salt.

Assay: Water solubility
Assay type: physicochemical

water solubility	Structure (SMILES)
below 1 mcg/ml	C[C@H]1[C@H](C)CC[C@]2(C(=O)O)CC[C@]3(C)C(=CC[C@@H]4[C@@]5(C)C[C@@H](O)[C@H](O)C(C)(C)[C@@H]5CC[C@]43C)[C@H]12 [Corosolic acid]
less than 5 mcg/ml	C[C@H]1[C@H](C)CC[C@]2(C(=O)O)CC[C@]3(C)C(=CC[C@@H]4[C@@]5(C)C[C@@H](O)[C@H](O)C(C)(C)[C@@H]5CC[C@]43C)[C@H]12 [sodium salt of this acid]
